Results as given in ChEMBL document CHEMBL1201862, “PubChem BioAssay data set” (2004).
One block for each molecule: values may come before it. The source made the active and inactive calls. For most assays here, no stated cut-off is given here; in the data, actives have a measured IC50 and inactives only a lower limit.

Key:
[1] = target: T1, Dual specificity protein phosphatase 6 (Rattus norvegicus, UniProt Q64346); assay type: functional;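 further: confirmatory in vitro dose-response testing of MKP-3 inhibition; recombinant His-tagged MKP-3 made in E. coli BL21 with OMFP substrate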
T1 sequence (Q64346 whole entry): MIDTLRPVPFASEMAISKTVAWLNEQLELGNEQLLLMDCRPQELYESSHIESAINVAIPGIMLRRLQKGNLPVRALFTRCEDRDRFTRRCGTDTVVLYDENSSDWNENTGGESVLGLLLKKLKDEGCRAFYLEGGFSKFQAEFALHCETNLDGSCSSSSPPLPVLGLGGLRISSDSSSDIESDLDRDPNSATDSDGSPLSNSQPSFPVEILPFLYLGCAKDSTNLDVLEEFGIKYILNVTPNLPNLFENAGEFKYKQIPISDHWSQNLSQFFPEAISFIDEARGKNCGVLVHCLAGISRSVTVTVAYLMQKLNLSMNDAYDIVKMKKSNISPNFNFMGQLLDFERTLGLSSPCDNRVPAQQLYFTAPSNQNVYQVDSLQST

[2] = target: T2, Tyrosine-protein phosphatase non-receptor type 7 (Homo sapiens, UniProt P35236); test: redox-dependent HePTP inhibition, mechanism study, biochemical, fluorescence (AID 2068); assay type: functional
T2 sequence (P35236 whole entry): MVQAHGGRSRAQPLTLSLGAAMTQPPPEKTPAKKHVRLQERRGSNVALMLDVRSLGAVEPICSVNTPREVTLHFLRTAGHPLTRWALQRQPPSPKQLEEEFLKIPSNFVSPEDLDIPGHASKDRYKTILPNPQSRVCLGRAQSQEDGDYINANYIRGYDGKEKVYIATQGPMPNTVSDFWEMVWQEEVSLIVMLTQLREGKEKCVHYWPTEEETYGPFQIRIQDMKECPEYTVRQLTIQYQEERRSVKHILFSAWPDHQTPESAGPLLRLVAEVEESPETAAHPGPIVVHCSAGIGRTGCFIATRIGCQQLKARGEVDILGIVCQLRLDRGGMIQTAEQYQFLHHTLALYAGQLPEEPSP

[3] = target: Envelope glycoprotein gp160 (Human immunodeficiency virus 1, UniProt Q6QLK5); test: inhibitors of HIV fusion peptide binding, primary screen, biochemical, uHTS, fluorescence dequenching (AID 1986)
[4] = target: T3, Short transient receptor potential channel 4 (Mus musculus, UniProt Q9QUQ5); test: mouse TRPC4 channel inhibitors, dose response, cell-based, HEK293 TRPC4/mu-opioid, Fluo-4 calcium (AID 434942); assay type: functional;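 further: potency of inhibitors blocking the TRPC4 calcium response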
T3 sequence (Q9QUQ5 whole entry): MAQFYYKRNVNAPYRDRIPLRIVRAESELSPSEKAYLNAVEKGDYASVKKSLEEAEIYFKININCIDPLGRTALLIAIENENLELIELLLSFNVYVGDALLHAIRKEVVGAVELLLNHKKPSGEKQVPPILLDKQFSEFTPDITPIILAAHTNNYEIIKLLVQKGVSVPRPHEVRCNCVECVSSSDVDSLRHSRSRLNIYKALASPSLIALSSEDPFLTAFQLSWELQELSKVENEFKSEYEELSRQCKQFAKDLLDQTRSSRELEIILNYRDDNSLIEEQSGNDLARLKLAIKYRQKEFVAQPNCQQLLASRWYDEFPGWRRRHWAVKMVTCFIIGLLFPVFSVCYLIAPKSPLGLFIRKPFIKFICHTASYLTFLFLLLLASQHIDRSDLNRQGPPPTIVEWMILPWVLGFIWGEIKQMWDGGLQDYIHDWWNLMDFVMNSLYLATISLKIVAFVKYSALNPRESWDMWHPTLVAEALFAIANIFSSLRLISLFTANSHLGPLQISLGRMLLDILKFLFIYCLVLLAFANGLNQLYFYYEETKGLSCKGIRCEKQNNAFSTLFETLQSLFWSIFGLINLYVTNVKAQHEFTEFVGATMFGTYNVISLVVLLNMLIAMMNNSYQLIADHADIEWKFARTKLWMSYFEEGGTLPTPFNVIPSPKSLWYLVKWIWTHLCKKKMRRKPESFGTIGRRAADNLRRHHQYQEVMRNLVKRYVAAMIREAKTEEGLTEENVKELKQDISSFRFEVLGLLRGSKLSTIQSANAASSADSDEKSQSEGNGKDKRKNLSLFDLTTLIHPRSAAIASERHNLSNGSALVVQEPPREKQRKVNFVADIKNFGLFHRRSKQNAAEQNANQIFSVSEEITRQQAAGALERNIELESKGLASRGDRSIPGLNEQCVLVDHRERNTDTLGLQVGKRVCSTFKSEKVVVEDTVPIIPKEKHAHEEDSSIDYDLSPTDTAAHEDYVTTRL

[5] = target: Type-1 angiotensin II receptor (Homo sapiens, UniProt P30556); test: AT1 receptor agonists, dose response, selectivity assay for APJ receptor agonist project, cell-based, uHTS hits (AID 488865); assay type: functional;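 further: beta-arrestin recruitment to AT1 measured by enzyme fragment complementation luminescence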
[6] = target: Melanin-concentrating hormone receptor 1 (Homo sapiens, UniProt Q99705); test: Late-stage fluorescence-based counterscreen for antagonists of the G-protein coupled receptor 7 (GPR7): cell-based dose response assay to identify antagonists of the melanin-concentrating hormone receptor 1 (MCHR1). [Related pubchem assays (depositor defined):AID1861, AID1880, AID1952, AID2148, AID2251, AID2257, AID485339]; assay type: functional;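 further: stimulated with 30 nM MCH peptide agonist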
[7] = target: T4, Neuropeptides B/W receptor type 1 (Homo sapiens, UniProt P48145); test: GPR7 antagonist potency, late-stage follow-up, cell-based, fluorescence, dose response (AID 463251); assay type: functional
T4 sequence (P48145 whole entry): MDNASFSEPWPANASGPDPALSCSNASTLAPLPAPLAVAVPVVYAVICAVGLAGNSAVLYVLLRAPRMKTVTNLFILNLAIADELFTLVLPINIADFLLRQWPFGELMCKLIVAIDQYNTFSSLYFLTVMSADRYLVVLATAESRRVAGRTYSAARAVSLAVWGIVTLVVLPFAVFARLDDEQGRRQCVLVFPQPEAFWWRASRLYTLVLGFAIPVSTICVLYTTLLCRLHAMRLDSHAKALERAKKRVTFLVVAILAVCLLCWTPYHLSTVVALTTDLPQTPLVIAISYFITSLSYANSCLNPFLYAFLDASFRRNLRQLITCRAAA

Chain of Type-1 angiotensin II receptor (P30556 whole entry, the tested form may be a part): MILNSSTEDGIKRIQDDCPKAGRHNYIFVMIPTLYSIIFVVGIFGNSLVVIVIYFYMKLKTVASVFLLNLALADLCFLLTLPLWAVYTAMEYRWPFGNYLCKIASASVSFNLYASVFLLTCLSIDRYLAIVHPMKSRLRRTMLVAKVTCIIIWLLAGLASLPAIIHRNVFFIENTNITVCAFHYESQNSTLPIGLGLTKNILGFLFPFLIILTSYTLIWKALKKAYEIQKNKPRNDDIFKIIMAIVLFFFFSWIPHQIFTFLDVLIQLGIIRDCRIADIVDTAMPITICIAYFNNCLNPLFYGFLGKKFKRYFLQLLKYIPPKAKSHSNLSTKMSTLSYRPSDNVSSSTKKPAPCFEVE
Chain of Envelope glycoprotein gp160 (Q6QLK5 whole entry, the tested form may be a part): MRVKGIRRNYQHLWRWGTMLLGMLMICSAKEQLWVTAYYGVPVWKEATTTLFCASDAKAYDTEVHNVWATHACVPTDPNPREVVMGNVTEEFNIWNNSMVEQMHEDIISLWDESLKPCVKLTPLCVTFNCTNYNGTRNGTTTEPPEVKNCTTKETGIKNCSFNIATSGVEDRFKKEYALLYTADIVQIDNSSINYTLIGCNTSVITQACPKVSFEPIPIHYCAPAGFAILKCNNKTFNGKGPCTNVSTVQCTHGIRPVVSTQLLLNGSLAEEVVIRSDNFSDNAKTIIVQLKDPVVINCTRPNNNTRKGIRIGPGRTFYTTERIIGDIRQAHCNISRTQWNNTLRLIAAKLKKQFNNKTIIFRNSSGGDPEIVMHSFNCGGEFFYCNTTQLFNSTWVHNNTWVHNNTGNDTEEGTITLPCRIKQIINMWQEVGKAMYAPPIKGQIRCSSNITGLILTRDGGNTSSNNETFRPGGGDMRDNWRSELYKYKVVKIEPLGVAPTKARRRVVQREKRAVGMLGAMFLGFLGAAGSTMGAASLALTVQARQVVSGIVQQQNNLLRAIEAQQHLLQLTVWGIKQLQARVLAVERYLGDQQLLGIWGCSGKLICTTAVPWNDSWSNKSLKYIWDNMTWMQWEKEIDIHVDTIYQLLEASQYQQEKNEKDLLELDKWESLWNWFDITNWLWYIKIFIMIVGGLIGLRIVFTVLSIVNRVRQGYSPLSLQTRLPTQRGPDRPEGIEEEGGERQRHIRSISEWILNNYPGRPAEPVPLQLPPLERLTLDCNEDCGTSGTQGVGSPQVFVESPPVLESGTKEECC
Chain of Melanin-concentrating hormone receptor 1 (Q99705 whole entry): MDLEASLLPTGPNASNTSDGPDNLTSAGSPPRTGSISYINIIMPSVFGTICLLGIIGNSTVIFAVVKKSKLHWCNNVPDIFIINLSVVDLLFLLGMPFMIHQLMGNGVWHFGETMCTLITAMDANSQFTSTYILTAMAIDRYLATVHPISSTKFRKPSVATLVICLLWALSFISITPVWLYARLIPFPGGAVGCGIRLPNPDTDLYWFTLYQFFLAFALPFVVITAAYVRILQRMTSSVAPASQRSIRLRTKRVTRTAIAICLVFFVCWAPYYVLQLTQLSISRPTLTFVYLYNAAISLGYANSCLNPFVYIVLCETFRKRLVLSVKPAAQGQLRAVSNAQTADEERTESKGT

IC50 [1]: > 100 µM (inactive)
IC50 [2]: 0.665 µM (active)
Structure (SMILES): COc1cc(C(=S)NCc2ccccc2)ccc1O

IC50 [3]: > 99 µM (inactive)
EC50 [4]: 4.22 µM (active)
Structure (SMILES): CCOc1ccc(NC(=O)c2cnn3c(O)cc(C4CCN(C(=O)OC(C)(C)C)CC4)nc23)cc1

EC50 [5]: > 100 µM (inactive)
Structure (SMILES): Cc1cc(C)n2nc3nc(N4CCCCC4)nc(-c4ccco4)c3c2n1

IC50 [6]: 18.2 µM (inactive)
IC50 [7]: 6.3 µM (active)
Structure (SMILES): CCOc1ccc(Oc2cnn(-c3ccc(C)cc3)c(=O)c2Cl)cc1
